From US8147880B2, “Polyacetylenic compounds for stimulating insulin gene exression, production and secretion” (Academia Sinica, priority 2007, dated 2012)

Columns and labels:
[1] = system: Primary β cells from mice; experiment: Insulin levels (intracellular anti-insulin staining, Elisa) in primary β cells; type: cell-based; details: mouse primary β cells; 2.5, 5, or 10 μg/ml for 24 hours; vs vehicle
Experimental: (§1) Primary β cells from mice were seeded in 9-cm^2 plates in a glucose-free RPMI 1640 medium. Both mouse primary β cells and RIN-m5F cells were treated with vehicle or cytopiloyne at 2.5, 5, or 10 μg/ml for 24 hours. The treated cells were subsequently subjected to intracellular staining with anti-insulin antibody (H86, Santa Cruz Biotechnology, CA, USA) and FITC-conjugated anti-rabbit antiserum (BD Biosciences, CA, USA) according to the manufacturer's instruction. The insulin levels in the cell media were determined using an insulin Elisa kit.

[2] = system: RIN-m5F cells; experiment: Insulin secretion into cell medium (insulin Elisa kit); type: cell-based, rat; details: 2.5, 10, and 15 μg/mL for 24 hours
Experimental: RIN-m5F cells, a rat β cell line, were obtained from the American Type Culture Collection (ATCC). Glucose-free RPMI medium was purchased from Life Technology. The cells were grown in a glucose-free RPMI 1640 medium supplemented with 10% FCS, penicillin (100 U/ml), streptomycin (100 μg/ml), 2-mercapoethanol (50 μM), sodium pyruvate (1 mM), and glutamate (292 μg/ml).
The cells were separately incubated with vehicle, glucose at a high dose (16.7 mM), glucose at a low dose (3.6 mM), and cytopiloyne at 2.5, 10, and 15 μg/mL for 24 hours. Insulin levels in the cell medium were determined using an insulin Elisa kit (Mercodia, Uppsala, Sweden).

[3] = system: human insulin promoter; experiment: Insulin promoter luciferase reporter (pINS-Luc / pRL-TK) in transfected RIN-m5F cells; type: cell-based; details: 2.5, 10, or 15 μg/ml for 24 hours
Experimental: The pINS-DCR3 vector containing a human insulin promoter was digested by SphI and BamHI and then cloned into a pcDNAΔCMVlue vector to generate the plasmid pINS-Luc. The plasmid pRL-TK containing a thymidine kinase promoter and a Renilla luciferase reporter gene was purchased from Promega.
RIN-m5F cells transfected with pINS-Luc and pRL-TK plasmids were incubated with vehicle, high glucose (16.7 mM), or cytopiloyne at 2.5, 10, or 15 μg/ml for 24 hours.

[4] = system: RIN-m5F cells; experiment: Insulin levels (intracellular anti-insulin staining, Elisa) in RIN-m5F cells; type: cell-based, rat; details: 2.5, 5, or 10 μg/ml for 24 hours, vs vehicle
Experimental: as §1

[5] = system: db/db mice; experiment: Intraperitoneal glucose tolerance test in diabetic db/db mice after oral administration; type: in vivo; details: db/db mice fasted 12 hours, glucose 0.5 g/kg i.p. half an hour later, vs PBS
Experimental: The db/db mice were purchased from Jackson Laboratory, and then maintained and handled according to the guidelines of Academia Sinica Institutional Animal Care and Utilization Committee (Taiwan). Glibenclamide was purchased from MP Biomedical Inc.
Diabetic db/db mice aged 7-8 weeks were fasted for 12 hours (water allowed) and orally administered with PBS, cytopiloyne at 0.5 mg/kg or Glimepiride at 2.5 mg/kg. Half an hour later, the mice were intraperitoneally injected with glucose at 0.5 g/kg body weight. Blood glucose levels were monitored at 0, 0.5, 1, 1.5, 2 and 3 hours using Elite glucometer.

[6] = system: db/db mice; experiment: Blood glucose levels in fasted diabetic db/db mice after intraperitoneal injection; type: in vivo; details: db/db mice 7-8 weeks old, fasted 12 hours; 25 μg/kg intraperitoneally; at two hours; vs PBS
Experimental: The db/db mice were purchased from Jackson Laboratory (Bar Harbor, Me., U.S.A.), and then maintained and handled according to the guidelines of Academia Sinica Institutional Animal Care and Utilization Committee (Taiwan).
Diabetic db/db mice of 7-8 weeks old were fasted for 12 hours (water allowed), and then intraperitoneally injected with phosphate-buffered saline (PBS) or cytopiloyne at 25 μg/kg, blood glucose levels in the mice were monitored at 0, 1, 2, 4, and 6 hours using Elite glucometer.

[7] = system: RIN-m5F cells; experiment: Cytopiloyne-induced insulin secretion after pre-treatment with channel modulators / calcium chelator; type: cell-based, rat; details: then cytopiloyne 5 μg/ml for 10 min
Experimental: RIN-[…] cells were pre-treated with vehicle, diazoxide (100 μM), EGTA (10 μM), or nimodipine (1 μM) for 30 minutes. They were then incubated with cytopiloyne at 5 μg/ml for 10 min. Insulin levels in the cell medium were determined using an insulin Elisa kit.

## CC#CC#CC#CC#CCCC(CO)OC1OC(CO)C(O)C(O)C1O (stereo not drawn) [cytopiloyne]
[1]
  insulin levels: elevated insulin levels
[2]
  insulin secretion: significantly enhanced insulin secretion
[3]
  insulin transcription: stimulated insulin transcription in RIN-m5F cells in a dose-dependent manner
[4]
  insulin levels: elevated insulin levels
[5]; 0.5 mg/kg orally
  glucose tolerance: improved glucose tolerance as effectively as Glimepiride
[6]
  blood glucose levels: significantly decreased

## CCC1=C(C)CN(C(=O)NCCc2ccc(S(=O)(=O)NC(=O)N[C@H]3CC[C@H](C)CC3)cc2)C1=O [Glimepiride, reference compound]
[5]; 2.5 mg/kg orally
  glucose tolerance: improved glucose tolerance

## CC1=NS(=O)(=O)c2cc(Cl)ccc2N1 [diazoxide]
[7]; pre-treatment 100 μM for 30 minutes
  effect on cytopiloyne-induced insulin secretion: suppressed cytopiloyne-induced insulin secretion

## O=C(O)CN(CCOCCOCCN(CC(=O)O)CC(=O)O)CC(=O)O [EGTA]
[7]; pre-treatment 10 μM for 30 minutes
  effect on cytopiloyne-mediated insulin secretion: suppressed cytopiloyne-mediated insulin secretion
